Measured values as given in patent publication US20260169011A1, “METHODS AND COMPOSITIONS FOR PROVIDING CUSTOMIZED NUTRITIONAL SUPPLEMENTS” (Vibrant Holdings LLC, priority 2023, published 2026).
Like-named read-outs stand apart in the source and are kept apart here.

Tests used:
[1] = NutriPro test: serum, RBC and WBC nutrient values before and after ATB / customized blend; assay type: in vivo, human
Description: The method for providing a nutritional supplement for a subject as disclosed herein is based on a comprehensive panel that assesses intracellular and extracellular levels of at least or up to 41 nutrients. […] Blood analysis using the method disclosed herein tests for nutrient levels in serum, red blood cells (RBCs), and white blood cells (WBCs). Additional genetic testing can assess patients' predispositions toward nutrient deficiencies. Based on the blood and genetic analysis results, a subsequent supplementation diet comprising supplements and food sources can be designed and implemented. The subject can be a human subject.
In some embodiments, the detection method is mass spectrometry.
The ‘NutriPro’ test is used to assess serum (extracellular), RBC, and WBC (intracellular) nutrient values along with genetic testing for any predispositions with could be affecting nutrient values in the body. If required, additional tests such as the gut zoomer, cardiovascular health, thyroid test, kidney function test, liver function test, etc, are carried out. FIG. 1 provides a schematic diagram of the process of the NutriPro test from the individual subject to the creation of customized nutritional blends.
The ATB is given to the individual for nutritional supplementation, and blood testing for nutrients in serum, RBC, and WBC is carried out after 3 or 6 months.
The assessed change is called the VAF.
After testing, the individual takes the ATB or the customized blend for the amount of time indicated.

[2] = Extracellular (serum) nutrient levels by mass spectrometry (LC-MS, GC-MS, ICP-MS); conditions: Level: Serum; person; before customized blend
[3] = Zone Approach: nutrient zone (Zone 1-5), target nutrient zone and follow-up zone; assay type: in vivo, human; conditions: Example 5: person, Zone Approach, CB followed for three months
Description: The second exemplary approach includes determining nutrient zones, and thus is referred to as the “Zone Approach.” According to some embodiments, the nutrient reference range for individuals can be divided into a number of zones, each indicating a nutrient wellness level. […] In some embodiments, for a given nutrient, each zone is associated with a specific multiplication factor, which can be used to determine the appropriate dosage for the CB. A few exemplary methods following this Zone Approach are further described hereinafter. […] Based on the assessment results, the current zone for each nutrient is determined at step 420a. In some embodiments, the genetic predispositions and cellular levels may influence the determination of the overall zone for a nutrient. […] This adjustment accounts for the impact of genetic polymorphisms and suboptimal cellular levels, each reducing the nutrient's zone by one or more zones. Therefore, this approach takes one or more of cellular and serum nutrient levels, along with their nutrient genetic profile into consideration to determine a given nutrient's overall zone. In the next, the Target Nutrient Zone (TNZ) to which the individual's each nutrient level is to be optimized is determined at step 430. […] In some embodiments, the determined TNZ is used to determine the multiplication factor used to adjust the starting dosage at step 440a, resulting in the CB dosage for each nutrient. In various embodiments, the multiplication factor is a fixed constant value, previously determined for a nutrient when moving from a first zone to a second zone. […] At step 450a, the CB with the determined nutrient dosages is administered to the individual for a predefined period. In some embodiments, a follow-up test is periodically conducted at step 460, to monitor the progress towards the target nutrient levels during the predefined period, for example, to check whether a target zone is reached or not for a given nutrient. In some embodiments, based on the results from the follow-up tests, it is further determined whether the dosage of the CB for a nutrient requires adjustment. If the adjustment is necessary, appropriate modification is made to the CB, for example, by increasing the TNZ to increase the nutrient levels. The modified CB is administered to the individual, and a reassessment is conducted again. In some embodiments, the personalized dosage of the nutritional supplement in the CB is modified as above after the at least one, two, three, four, five, six, seven, eight, nine, ten, or more repeats.

[4] = Vibrant Absorption Factor (VAF): difference of post- and pre-supplementation nutrient values divided by ATB dosage; conditions: person one; serum
Description: Improvement in nutrition can be determined by comparing the nutrient values in serum, RBC, and WBCs post-nutritional supplementation to the nutrient values in serum, RBC, and WBCs pre-nutritional supplementation. Based on the improvement, the change in the nutrient levels can be attributed to the per milligram dosage of the supplemented nutrients. The assessed nutritional change is the “Vibrant Absorption factor (VAF (see Equation (1) below). The VAF can be used to determine the subject's utilization of the supplemented nutrients, as determined by the difference in extracellular and intracellular nutrient values before and after supplementation. Based on the subject's utility or absorption of the nutrients, the dosage amount of the nutrient needed to be supplemented or increased to effect change of the subject's nutrient values into the optimum nutrient zone can be assessed. In various embodiments, the VAF is determined by administering a pre-determined formulation, referred to herein as the Absorption Testing Blend.
Next, the ATB is administered to the individual for a predefined period at step 320a, after which nutrient levels and the genetic nutrient profile are re-evaluated, to obtain the post-supplementation biomarker values at step 330.
This includes determining the VAF based on the difference between post- and pre-supplementation biomarker values, which is divided by the ATB dosage.
The assessed change is called the VAF. The VAF is used to understand how the individual's body is utilizing these nutrients, depending on the difference in extracellular and intracellular nutrient values before and after supplementation. Based on the body's utility or absorption of the nutrients, the amount of nutrients needed to be supplemented to alter the individual's nutrient values into the optimum nutrient zone is understood. The VAF calculations help in determining the appropriate dosages of nutrients required in the ‘customized blend.’

clinical = conditions: female, human, in vivo
Description: In some embodiments, the detection method assesses nutrients both in extracellular plasma and intracellular in RBC and WBC. In some embodiments, the detection method is mass spectroscopy-based. The extracellular and intracellular nutrient levels provide a comprehensive analysis of a subject's nutrient status, reflecting not only the intake levels but also the absorption levels into the cells.
In some aspects, the extracellular nutrient levels provide a snapshot of the status of nutrient baseline levels at a given time. It is a reflection of a person's diet over a narrow period of time. In contrast, the intracellular levels of nutrients provide information on the absorbed levels of nutrients, thus accounting for factors such as aging, lifestyle, chronic illness, medication, etc. that could interfere with absorption and can change the functional nutritional levels.
In some embodiments, the detection method is mass spectrometry. In some embodiments, the detection method is Liquid chromatography-mass spectrometry (LC-MS), Gas chromatography-mass spectrometry (GC-MS), or Inductively coupled plasma-mass-spectrometry (ICP-MS). In some embodiments, the detection method is Liquid chromatography-mass spectrometry (LC-MS). In some embodiments, the detection method is Gas chromatography-mass spectrometry (GC-MS). In some embodiments, the detection method is Inductively coupled plasma-mass-spectrometry (ICP-MS).
In some embodiments, the method provided herein evaluates nutrient levels, both in extracellular serum and inside (intracellular) red blood cells (RBC) and/or white blood cells (WBC). The extracellular nutrient levels provide a snapshot of the status of nutrient baseline levels at a given time. These extracellular nutrient levels are a reflection of a person's diet over a narrow period of time. In contrast, RBCs have a normal lifespan of 120 days, and thus intracellular assessments for nutrients in RBCs can provide information on nutrients over longer periods. Additionally, the intracellular levels of nutrients provide information on the absorbed levels of nutrients, thus accounting for factors such as, but not limited to, aging, lifestyle, chronic illness, and medication, that can interfere with absorption and can change the functional nutritional levels. Moreover, actual nutrient utilization occurs inside the cell owing to cellular metabolic processes. At times, nutrients could be present in serum, but poor cellular uptake may result in cells being devoid of these nutrients, thus giving rise to nutrient deficiencies owing to affected cellular activities. […] As a result, it is important to assess nutrients intracellularly in addition to extracellularly. Thus, the intracellular assessment provides information on cellular uptake and utilization of nutrients at the most fundamental level, enabling understanding of the root cause of nutrient deficiencies.
The subject individual fills out the health questionnaire (PHQ) which helps establishes factors such as symptoms, complications, comorbidities, and ongoing medications. The subject's blood is drawn and the extracellular serum and intracellular blood cells are tested for nutritional deficiencies via mass spectroscopy (e.g., Liquid chromatography-mass spectrometry (LC-MS), Gas chromatography-mass spectrometry (GC-MS), or Inductively coupled plasma-mass-spectrometry (ICP-MS)).

[5] = cited from earlier work

- Follow-up Biomarker level ([1]; male, human, in vivo): 697 nmol/mL
- Post-test biomarker level ([1]; male, human, in vivo): 312 nmol/mL
- Pre-test biomarker level ([1]; person one, serum, before ATB): 295.3 nmol/mL
- Follow-up Nutrient Level ([1]; person three, serum, after customized blend): 677 nmol/mL
- Actual Nutrient Value (ANV) ([1]; person three, serum, before customized blend): 290 nmol/mL
- Actual Nutrient Value (ANV) [2]: 302 nmol/mL
- VAF [4]: 3.34
- concentration at 3 months (clinical): 371 µM
SMILES: NC(=O)CC[C@H](N)C(=O)O [L-glutamine, L-Glutamine]
- change of nutrient level at follow-up testing [3]: marginal increase
- nutrient zone at follow-up testing [3]: Zone 2
- UTL ([5]; Table 18, person one): 14000 mg/day
- UTL ([5]; Table 20, person three): 14000 mg/day
- UTL ([5]; upper tolerable limit): 14000 mg/day
